Each structure is given as a SMILES string.

In turn, `CC(C)c1cccc(C(C)C)c1NC(=O)CC(O)CC(c1ccccc1)c1ccccc1` (stereo not given) returned a logP of 4.01.
For `CCCCCCCCCCCC(=O)CC(=O)Nc1c(OC)cc(OC)cc1OC` the value was 5.02; for `CCCCCCCCCCCC(=O)C(C)(C)C(=O)N(C)c1c(OC)cc(OC)cc1OC`, 6.67.
For `CC(C)c1cccc(C(C)C)c1NC(=O)CC(CC(c1ccccc1)c1ccccc1)=NO`, the logP was found to be 3.93.
For `CCCCCCCCCCCC(=O)C(C)(C)C(=O)Nc1c(OC)cc(OC)cc1OC` the value was 4.88.
The compound `CC(C)c1cccc(C(C)C)c1NC(=O)CC(=O)C(c1ccccc1)c1ccccc1` had a logP of 3.96.
For `CC(C)c1cccc(C(C)C)c1NC(=O)CC(=O)C1(c2ccccc2)CCCC1` the value was 4.55; for `CC(C)c1cccc(C(C)C)c1NC(=O)CC(=O)CCCCCCCCCCO`, 4.2; for `CC(C)c1cccc(C(C)C)c1NC(=O)CC(=O)c1ccccc1`, 2.87.
For `CCCCCCCC1CC(C(=O)Nc2c(C(C)C)cccc2C(C)C)C(=O)O1` (stereo not given), the logP was determined as 4.72.

As usually defined, the logP is a log measure of how a compound divides between an organic and an aqueous phase.

(Values after the SangsterLogP compilation.)
